# Paper PMC3677030 (ChemMedChem, 2012)
# Read-outs that look alike come from different tables or passages of the source.
# Assays:
# [1] = target: T1, EphA2-ephrin-A1 interaction (EphA2-Fc ectodomain) (Mus musculus, UniProt Q03145); settings: read-out: Ki, competitive antagonist of the EphA2 receptor; earlier work; cited from earlier work
# EGF receptor [2] = target: T2, EGF receptor (Homo sapiens, UniProt P00533); settings: cited from earlier work
# VEGF receptor = settings: cited from earlier work
# insulin receptor = settings: cited from earlier work
# [3] = tested on: insulin-like growth factor receptor 1; settings: cited from earlier work
# [4] = target: T1, EphA2-ephrin-A1 interaction (EphA2-Fc ectodomain); assay type: binding; settings: for Activity in EphA2-ephrin-A1 binding assay, in words: tested starting from 200 μM; for Schild plot slope: slope between 0.8 and 1.2 indicates competitive binding
# [5] = tested on: EphA receptors (vs EphB receptors); assay type: binding; settings: compared with lithocholic acid
# EphA2 receptor [6] = target: EphA2 receptor (Mus musculus, UniProt Q03145); experiment: Surface plasmon resonance; assay type: binding; settings: for Kd: SPR
# EphA2 receptor [7] = target: EphA2 receptor (Homo sapiens, UniProt P29317); experiment: EphA2 phosphorylation induced by ephrin-A1-Fc in PC3 cells; assay type: cell-based; settings: no ephrin, data not shown
# EphB4 receptor = target: T3, EphB4 receptor (Homo sapiens, UniProt P54760); experiment: EphB4 phosphorylation induced by ephrin-B2-Fc in T47D cells; assay type: cell-based; settings: no ephrin, data not shown
# T3 sequence (P54760 16-987): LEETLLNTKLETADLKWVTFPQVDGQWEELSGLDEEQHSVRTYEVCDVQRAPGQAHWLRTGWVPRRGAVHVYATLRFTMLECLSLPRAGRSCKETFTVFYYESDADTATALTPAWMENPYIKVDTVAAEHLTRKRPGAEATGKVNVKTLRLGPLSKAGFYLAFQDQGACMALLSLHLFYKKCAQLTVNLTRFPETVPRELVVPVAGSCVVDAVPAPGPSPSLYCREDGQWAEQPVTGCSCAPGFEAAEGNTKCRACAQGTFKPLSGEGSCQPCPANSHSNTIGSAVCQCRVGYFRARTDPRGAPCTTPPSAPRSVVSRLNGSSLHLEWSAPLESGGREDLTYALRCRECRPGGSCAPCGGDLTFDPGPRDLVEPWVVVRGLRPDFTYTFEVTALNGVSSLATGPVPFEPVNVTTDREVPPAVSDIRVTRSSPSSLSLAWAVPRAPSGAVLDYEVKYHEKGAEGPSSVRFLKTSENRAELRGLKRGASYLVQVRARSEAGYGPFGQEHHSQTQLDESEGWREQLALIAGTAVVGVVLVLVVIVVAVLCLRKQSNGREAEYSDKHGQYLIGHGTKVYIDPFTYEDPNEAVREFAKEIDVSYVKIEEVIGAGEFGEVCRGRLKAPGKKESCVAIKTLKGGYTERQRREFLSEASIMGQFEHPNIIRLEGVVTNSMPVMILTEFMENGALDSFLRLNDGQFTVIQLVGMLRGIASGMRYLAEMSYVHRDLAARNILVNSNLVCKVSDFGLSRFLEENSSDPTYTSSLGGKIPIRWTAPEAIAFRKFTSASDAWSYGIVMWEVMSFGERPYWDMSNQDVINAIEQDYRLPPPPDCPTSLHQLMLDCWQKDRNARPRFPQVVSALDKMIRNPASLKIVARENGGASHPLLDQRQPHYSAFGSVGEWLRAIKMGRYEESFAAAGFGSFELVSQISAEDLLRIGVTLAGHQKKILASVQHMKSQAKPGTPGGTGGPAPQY
# [8] = target: T4, recombinant human EphA2 kinase domain (Homo sapiens, UniProt P29317); experiment: EphA2 kinase assay; assay type: biochemical; settings: 100 μM, 30 minutes
# T4 sequence (P29317 613-875 limits assumed): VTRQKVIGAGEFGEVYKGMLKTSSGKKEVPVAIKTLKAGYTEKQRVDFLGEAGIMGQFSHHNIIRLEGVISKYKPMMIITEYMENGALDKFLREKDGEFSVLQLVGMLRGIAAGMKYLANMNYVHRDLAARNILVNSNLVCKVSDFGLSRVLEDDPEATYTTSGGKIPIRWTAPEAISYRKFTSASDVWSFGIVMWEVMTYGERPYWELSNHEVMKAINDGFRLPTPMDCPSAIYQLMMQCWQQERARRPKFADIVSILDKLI
# EGF receptor [9] = target: T2, EGF receptor; experiment: EGF receptor phosphorylation induced by EGF in PC3 cells; assay type: cell-based; settings: up to 100 μM, 30 ng/ml EGF
# T1 sequence (Q03145 26-538 limits assumed): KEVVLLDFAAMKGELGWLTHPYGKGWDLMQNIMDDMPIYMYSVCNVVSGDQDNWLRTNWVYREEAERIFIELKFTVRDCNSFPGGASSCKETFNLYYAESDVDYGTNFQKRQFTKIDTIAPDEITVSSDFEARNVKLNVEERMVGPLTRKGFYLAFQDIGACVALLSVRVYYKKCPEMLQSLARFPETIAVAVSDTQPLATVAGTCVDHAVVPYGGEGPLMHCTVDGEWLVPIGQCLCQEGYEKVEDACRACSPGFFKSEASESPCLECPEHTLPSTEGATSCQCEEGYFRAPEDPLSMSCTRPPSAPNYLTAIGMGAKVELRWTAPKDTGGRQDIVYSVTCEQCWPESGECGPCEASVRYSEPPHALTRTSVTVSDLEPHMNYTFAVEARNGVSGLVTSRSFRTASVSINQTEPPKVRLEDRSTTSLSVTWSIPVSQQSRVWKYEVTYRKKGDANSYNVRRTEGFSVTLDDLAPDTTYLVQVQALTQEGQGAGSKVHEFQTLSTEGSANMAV
# Sequence of EphA2 receptor (Mus musculus, UniProt Q03145) (Q03145 26-538 limits assumed): as above
# T2 sequence (P00533 25-1210): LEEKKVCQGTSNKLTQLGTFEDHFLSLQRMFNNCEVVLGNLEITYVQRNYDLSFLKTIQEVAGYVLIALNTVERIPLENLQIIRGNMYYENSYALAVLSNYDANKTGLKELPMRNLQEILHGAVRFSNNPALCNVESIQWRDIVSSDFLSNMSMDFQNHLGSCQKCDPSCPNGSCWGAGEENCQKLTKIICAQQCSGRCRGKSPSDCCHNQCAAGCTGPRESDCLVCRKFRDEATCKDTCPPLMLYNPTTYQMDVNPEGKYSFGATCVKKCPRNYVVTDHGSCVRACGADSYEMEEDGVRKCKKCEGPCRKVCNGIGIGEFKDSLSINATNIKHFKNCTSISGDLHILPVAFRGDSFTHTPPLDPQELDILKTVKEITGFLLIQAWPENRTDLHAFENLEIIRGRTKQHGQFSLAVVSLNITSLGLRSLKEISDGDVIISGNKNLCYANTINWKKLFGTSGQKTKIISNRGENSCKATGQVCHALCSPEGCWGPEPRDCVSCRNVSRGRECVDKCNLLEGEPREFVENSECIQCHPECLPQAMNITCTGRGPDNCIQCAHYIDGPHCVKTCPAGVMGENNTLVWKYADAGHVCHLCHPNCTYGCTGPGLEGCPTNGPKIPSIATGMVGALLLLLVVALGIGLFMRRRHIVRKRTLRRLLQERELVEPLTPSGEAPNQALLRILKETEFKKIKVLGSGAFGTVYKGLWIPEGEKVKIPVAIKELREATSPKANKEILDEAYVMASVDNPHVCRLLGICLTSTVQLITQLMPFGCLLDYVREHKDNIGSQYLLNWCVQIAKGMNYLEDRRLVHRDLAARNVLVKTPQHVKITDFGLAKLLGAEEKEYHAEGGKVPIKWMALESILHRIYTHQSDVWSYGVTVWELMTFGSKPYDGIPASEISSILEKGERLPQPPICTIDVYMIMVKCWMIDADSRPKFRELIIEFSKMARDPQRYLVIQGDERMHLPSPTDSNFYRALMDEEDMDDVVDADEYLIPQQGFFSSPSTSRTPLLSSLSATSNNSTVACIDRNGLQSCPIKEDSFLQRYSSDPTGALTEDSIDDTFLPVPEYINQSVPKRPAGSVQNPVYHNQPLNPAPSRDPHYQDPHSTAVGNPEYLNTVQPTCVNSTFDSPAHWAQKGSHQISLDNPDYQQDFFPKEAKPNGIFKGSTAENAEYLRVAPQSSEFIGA
# Sequence of EphA2 receptor (Homo sapiens, UniProt P29317) (P29317 24-976): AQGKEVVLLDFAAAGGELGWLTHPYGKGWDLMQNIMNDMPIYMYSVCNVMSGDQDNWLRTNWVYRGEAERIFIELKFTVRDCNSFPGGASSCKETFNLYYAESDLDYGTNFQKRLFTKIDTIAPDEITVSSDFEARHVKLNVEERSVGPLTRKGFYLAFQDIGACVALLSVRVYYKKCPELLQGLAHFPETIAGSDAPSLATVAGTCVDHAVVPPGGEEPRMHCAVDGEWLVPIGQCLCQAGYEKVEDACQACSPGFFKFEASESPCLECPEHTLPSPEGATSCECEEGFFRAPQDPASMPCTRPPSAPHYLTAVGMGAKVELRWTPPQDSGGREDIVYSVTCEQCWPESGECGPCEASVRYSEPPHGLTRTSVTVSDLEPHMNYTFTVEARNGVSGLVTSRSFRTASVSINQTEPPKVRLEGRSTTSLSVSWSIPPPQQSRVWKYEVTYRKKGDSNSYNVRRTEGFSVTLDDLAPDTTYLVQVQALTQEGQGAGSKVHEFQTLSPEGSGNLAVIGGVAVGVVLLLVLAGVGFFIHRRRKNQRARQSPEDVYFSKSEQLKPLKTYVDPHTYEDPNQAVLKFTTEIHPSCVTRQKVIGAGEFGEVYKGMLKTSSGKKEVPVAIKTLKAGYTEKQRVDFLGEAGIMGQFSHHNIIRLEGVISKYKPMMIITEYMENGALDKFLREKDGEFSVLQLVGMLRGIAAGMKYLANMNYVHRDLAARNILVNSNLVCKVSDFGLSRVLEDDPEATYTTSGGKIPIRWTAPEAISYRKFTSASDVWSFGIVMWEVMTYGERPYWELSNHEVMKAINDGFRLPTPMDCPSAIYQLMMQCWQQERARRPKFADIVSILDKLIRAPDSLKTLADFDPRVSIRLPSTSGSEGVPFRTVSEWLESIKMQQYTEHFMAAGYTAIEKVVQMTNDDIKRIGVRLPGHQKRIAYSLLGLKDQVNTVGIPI
Structure (SMILES),Ki [4],"Activity in EphA2-ephrin-A1 binding assay, in words [4]",also measured
"C[C@H](CCC(=O)O)[C@H]1CC[C@H]2[C@@H]3CC[C@@H]4C[C@H](O)CC[C@]4(C)[C@H]3CC[C@]12C [Compound 1, (3α,5β)-3-hydroxycholan-24-oic acid]",–,–,Ki [1]: 49 ± 3 µM; Effect on EGF receptor (EGF receptor [2]): lack of effects; Effect on VEGF receptor (VEGF receptor): lack of effects; Effect on insulin receptor (insulin receptor): lack of effects; Effect on insulin-like growth factor receptor 1 [3]: lack of effects
"C[C@H](CCC(=O)O)[C@H]1CC[C@H]2[C@@H]3[C@H](O)C[C@@H]4C[C@H](O)CC[C@]4(C)[C@H]3C[C@H](O)[C@]12C [Compound 2, cholic acid]",> 200 µM,inactive,–
"C[C@H](CCC(=O)O)[C@H]1CC[C@H]2[C@@H]3CC[C@@H]4C[C@H](O)CC[C@]4(C)[C@H]3C[C@H](O)[C@]12C [Compound 3, deoxycholic acid]",> 200 µM,inactive,–
"C[C@H](CCC(=O)O)[C@H]1CC[C@H]2[C@@H]3[C@H](O)C[C@@H]4C[C@H](O)CC[C@]4(C)[C@H]3CC[C@]12C [Compound 4, chenodeoxycholic acid]",> 200 µM,inactive,–
"C[C@H](CCC(=O)O)[C@H]1CC[C@H]2[C@@H]3CC[C@@H]4C[C@@H](O)CC[C@]4(C)[C@H]3CC[C@]12C [Compound 10, (3β,5β)-3-hydroxycholan-24-oic acid]",–,–,IC50 [4]: 67 µM; Schild plot slope ([4]; listed as isolithocholic): 0.96 ± 007
"C[C@H](CCC(=O)O)[C@H]1CC[C@H]2[C@@H]3CC[C@@H]4C[C@@H](S(=O)(=O)O)CC[C@]4(C)[C@H]3CC[C@]12C [Compound 11, (3β,5β)-3-sulfocholan-24-oic acid]",> 200 µM,inactive,–
"C[C@H](CCC(=O)O)[C@H]1CC[C@H]2[C@@H]3CC[C@@H]4CCCC[C@]4(C)[C@H]3CC[C@]12C [Compound 12, (5β)-cholan-24-oic acid]",5.1 ± 1.4 µM,–,"Schild plot slope ([4]; listed as cholanic acid): 0.98 ± 002; Selectivity between Eph receptor subfamilies, in words [5]: more selective for the EphA receptor subfamily; Kd (EphA2 receptor [6]; KD from steady state analysis, steady state affinity): 1.16 µM; Kd (EphA2 receptor [6]; affinity constant (KD) from kinetic analysis, koff/kon): 8.45 µM; kon (EphA2 receptor [6]; read-out: association rate (kon)): 44000 M⁻¹ s⁻¹; koff (EphA2 receptor [6]; read-out: dissociation rate (koff)): 0.369 s⁻¹; Stimulation of EphA2 tyrosine phosphorylation by compound on its own (EphA2 receptor [7]): did not stimulate; Stimulation of EphB4 tyrosine phosphorylation by compound on its own (EphB4 receptor): did not stimulate; Effect on EphA2 kinase activity [8]: did not affect; Effect on EGF receptor activation induced by EGF (EGF receptor [9]): did not interfere"
"COC(=O)CC[C@@H](C)[C@H]1CC[C@H]2[C@@H]3CC[C@@H]4C[C@H](O)CC[C@]4(C)[C@H]3CC[C@]12C [Compound 13, methyl (3α,5β)-3-hydroxycholan-24-oate]",> 200 µM,inactive or weakly active,–
"C[C@H](CCC(=O)NO)[C@H]1CC[C@H]2[C@@H]3CC[C@@H]4C[C@H](O)CC[C@]4(C)[C@H]3CC[C@]12C [Compound 14, (3α,5β)-3-Hydroxycholan-24-hydroxamic acid]",> 200 µM,inactive or weakly active,–
"C[C@H](CCC(=O)NN)[C@H]1CC[C@H]2[C@@H]3CC[C@@H]4C[C@H](O)CC[C@]4(C)[C@H]3CC[C@]12C [Compound 15, (3α,5β)-3-Hydroxycholan-24-hydrazide]",> 200 µM,inactive or weakly active,–
"C[C@H](CCCO)[C@H]1CC[C@H]2[C@@H]3CC[C@@H]4C[C@H](O)CC[C@]4(C)[C@H]3CC[C@]12C [Compound 16, (3α,5β)-Cholan-3,24-diol]",186 ± 27 µM,inactive or weakly active,–
